# Experimental data taken from patent publication US7973075B2, “Kainate receptor-selective epimeric analogs of dysiherbaine” (priority 2007, dated 2011).
# Entries after “also recorded” stand apart in the source; their conditions may differ. Like-named read-outs stand apart in the source and are kept apart here.
# Biological target: T1, GluR5-2a (Rattus norvegicus, UniProt P22756, DEL402-416)
# T1 construct: expressed in transfected cells; host or cells: HEK-293-T/17
# Experiment: Whole-cell patch clamp recordings, transfected HEK-293-T/17 cells, Example 2
# Assay type: cell-based
# Conditions: for agonist activity: analog-evoked currents from GluR5-2a receptors (words): 1 s test application of the analog at a high concentration (10-100 μM); for recovery of glutamate-evoked currents after analog application, GluR5-2a: 30 μM analog; for inhibition of glutamate-evoked current, GluR5-2a: pre-application of 1 μM analog, 10 mM glutamate; for time constant for recovery of glutamate-evoked currents, τ: after 2.5 min application of 30 μM analog
# Procedure: Cell Culture and Electrophysiology. HEK-293-T/17 cells were maintained in Dulbecco's modified Eagle's medium (DMEM) supplemented with 100 μg/mL penicillin, 100 μg/mL streptomycin, and 10% heat inactivated fetal bovine serum. One day before transfection, HEK-T/17 cells were plated at low density on glass coverslips coated with 100 μg/ml poly-D-lysine and 100 μg/ml collagen. Cells were transfected with receptor cDNAs ([…]) in combination with enhanced green fluorescent protein (eGFP) cDNA for visualization of transfected cells. Transfections were carried out with Fugene6 (Roche Applied Science) according to the manufacturer's protocol and used 2-3 days following transfection. Internal solution consisted of 110 mM CsF, 30 mM CsCl, 4 mM NaCl, 0.5 mM CaCl2, 10 mM HEPES, and 5 mM EGTA, and was adjusted to pH=7.3 with CsOH. The external solution contained 150 mM NaCl, 2.8 mM KCI, 2 mM CaCl2, 1 mM MgCl2, and 10 mM HEPES, adjusted to pH=7.3 with NaOH. Patch electrodes from thick-walled borosilicate glass (Warner Instruments, Hamden, Conn.) were pulled to a final resistance of 1.5 to 2.5 MO after fire polishing. […] To determine the pre-desensitization IC50 of selected analogs, several control glutamate (10 mM) applications were followed by a 2.5 minute application of various concentrations of 8-deoxy-neoDH, 9-deoxy-neoDH, or MSVIII-19, after which the analogs were co-applied with glutamate. A similar protocol was followed to measure the recovery of glutamate-evoked currents, with the exception that the analogs were not co-applied with glutamate. Whole cell patch clamp recordings were carried out using an Axopatch 200B amplifier (Axon Instruments). Data were analyzed with Origin 7.5 (OriginLab Corp.), and Prism4 (GraphPad Software Inc.); inhibition-response curves were plotted and fit with a one-site competition curve constrained to fixed minima (0) and maxima (100).
# Because neoDH and its natural analog, dysiherbaine (DH), both act as KAR agonists, we tested each of the analogs for agonist activity using whole-cell patch clamp recordings. Application of saturating concentrations of glutamate (10 mM) to a transiently transfected HEK-293-T/17 cell was first done to obtain a rapidly activating and desensitizing control current; this was then followed by a test application of the analog at a high concentration (10-100 μM).
# 9-deoxy-neoDH and the di-deoxy antagonist, MSVIII-19, have very similar binding profiles on GluR5-2a and other subunits (Sanders et al., 2005), but both their functional activities and behavioral properties differ. 9-deoxy-neoDH elicits small but reproducible currents from GluR5-2a receptors (FIG. 8B), whereas MSVIII-19 behaves as an antagonist (Sanders et al., 2005). To further compare the activity of these compounds and the high-affinity agonist 8-deoxy-neoDH on GluR5-2a receptors, we determined their respective IC50s for pre-desensitization of the receptor (FIG. 9). Responses to 10 mM glutamate were elicited to determine the control current amplitudes for GluR5-2a expressing cells; receptors were then pre-desensitized with low concentrations of the analog (8-deoxy-neoDH or 9-deoxy-neoDH) before test co-applications with glutamate.
# Several analogs, including the parent compounds DH and neoDH, induce a very stable, ligand-bound desensitized conformation of GluR5-2a and GluR6a receptors that occludes subsequent activation of the receptors for long periods of time. We measured the duration of the interaction of Group I analogs with GluR5-2a receptors by determining the time course of recovery of glutamate-evoked currents after application of the analogs (for 2.5 min) (FIG. 10). In FIG. 10A, traces on the left are representative control glutamate-evoked currents; traces on the right are glutamate-evoked currents ten minutes after exposure to 8-deoxy-neoDH, 9-deoxy-neoDH, or MSVIII-19 (each at 30 μM). […]
# T1 sequence (P22756 with tags, fused parts or gaps isoform P22756-2 limits assumed, stated change not applied): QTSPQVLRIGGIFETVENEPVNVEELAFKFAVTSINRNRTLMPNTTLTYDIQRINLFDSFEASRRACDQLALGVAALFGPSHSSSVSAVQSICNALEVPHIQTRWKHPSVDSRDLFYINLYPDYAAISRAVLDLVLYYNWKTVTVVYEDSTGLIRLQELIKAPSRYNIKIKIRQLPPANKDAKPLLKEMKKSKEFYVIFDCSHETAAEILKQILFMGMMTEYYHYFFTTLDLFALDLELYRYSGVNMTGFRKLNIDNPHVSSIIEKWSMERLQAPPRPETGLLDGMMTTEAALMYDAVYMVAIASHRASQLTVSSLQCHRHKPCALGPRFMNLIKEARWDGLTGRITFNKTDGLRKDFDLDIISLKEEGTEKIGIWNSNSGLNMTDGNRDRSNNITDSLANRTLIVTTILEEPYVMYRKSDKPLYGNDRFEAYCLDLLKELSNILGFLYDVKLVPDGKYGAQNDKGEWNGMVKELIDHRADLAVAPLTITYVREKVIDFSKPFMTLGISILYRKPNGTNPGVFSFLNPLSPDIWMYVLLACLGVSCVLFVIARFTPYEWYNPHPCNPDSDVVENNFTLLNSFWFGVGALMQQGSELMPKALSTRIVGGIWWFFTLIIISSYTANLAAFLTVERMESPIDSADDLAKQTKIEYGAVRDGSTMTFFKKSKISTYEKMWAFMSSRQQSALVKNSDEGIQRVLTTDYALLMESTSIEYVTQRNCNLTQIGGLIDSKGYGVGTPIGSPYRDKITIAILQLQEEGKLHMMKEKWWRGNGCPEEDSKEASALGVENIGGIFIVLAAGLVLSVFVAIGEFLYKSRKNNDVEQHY
SMILES,agonist activity: analog-evoked currents from GluR5-2a receptors (words),"recovery of glutamate-evoked currents after analog application, GluR5-2a",further results
"NC(CC1(C(=O)O)CC2OCC(O)C(O)C2O1)C(=O)O (stereo not drawn) [9-epi-neoDH, 9-epi-neodysiherbaine]","elicited rapidly activating currents; also recorded: elicited very small amplitude, weakly desensitizing currents; also recorded: very weak partial agonists",–,–
"N[C@@H](C[C@@]1(C(=O)O)CC2OCC(O)C(O)C2O1)C(=O)O (single isomer, unassigned) [2,4-epi-neoDH, 2,4-epi-neodysiherbaine]","failed to elicit detectable current; also recorded: antagonist (or possibly a very weak partial agonist); also recorded: fails to activate GluR5 or GluR6 receptors, even at 100 μM",remained associated with the GluR5-2a receptor for many minutes,"IC50 (10 mM glutamate in continued presence of analog, read-out: IC50 inhibition of glutamate-evoked currents, GluR5-2a): 7.5 µM; agonist activity: analog-evoked currents from GluR5-2a receptors (words) (listed as 2,4-epineoDH): fails to activate"
N[C@@H](C[C@]1(C(=O)O)C[C@H]2OC[C@@H](O)C[C@H]2O1)C(=O)O [8-deoxy-neoDH],"elicited currents; also recorded: full agonist, or a highly efficacious partial agonist; also recorded: full agonists or highly efficacious partial agonists; also recorded: GluR5 agonists",completely attenuated glutamate currents in response to glutamate for up to 15 min; also recorded: remained associated beyond the duration of the experiments,"IC50: 0.000238 µM; inhibition of glutamate-evoked current, GluR5-2a: completely inhibited"
"N[C@@H](C[C@@]1(C(=O)O)CC2OCC(O)C(O)C2O1)C(=O)O (single isomer, unassigned) [4-epi-neoDH, 4-epi-neodysiherbaine]",evoked small but detectable currents; also recorded: elicits large currents; also recorded: activates,remained associated with the GluR5-2a receptor for many minutes,–
"NC(CC1(C(=O)O)CC2OCC(O)C(O)C2O1)C(=O)O (stereo not drawn) [8,9-epi-neoDH, 8,9-epi-neodysiherbaine]",failed to activate GluR5-2a-expressing cells,–,"agonist activity: analog-evoked currents from GluR5-2a receptors (words) (listed as 8,9epi-neoDH): failed to elicit a detectable current; inhibition of glutamate-evoked currents in GluR5-2a-expressing cells (high test concentrations, data not shown): modestly inhibited"
N[C@@H](C[C@]1(C(=O)O)C[C@H]2OCC[C@@H](O)[C@H]2O1)C(=O)O [9-deoxy-neoDH],elicited currents; also recorded: very weak agonist; also recorded: GluR5 agonists,–,"IC50 (2.5 min analog application, then co-application with 10 mM glutamate, read-out: IC50 for pre-desensitization of GluR5-2a receptors): 0.151 µM; time constant for recovery of glutamate-evoked currents, τ: 1.5 s; inhibition of glutamate-evoked current, GluR5-2a: inhibited but did not abolish"
"N[C@@H](C[C@]1(C(=O)O)C[C@H]2OCCC[C@H]2O1)C(=O)O [MSVIII-19, 8,9-dideoxy-neoDH]",–,–,"time constant for recovery of glutamate-evoked currents, τ: 1.4 s"
"NC(CC1(C(=O)O)CC2OCC(O)C(O)C2O1)C(=O)O (stereo not drawn) [8-epi-neoDH, 8-epi-neodysiherbaine]",elicited rapidly activating currents,–,agonist activity: analog-evoked currents from GluR5-2a receptors (words) (listed as 8-epineoDH): elicited large desensitizing currents with variable kinetics
NC(CC1(C(=O)O)CC2OCC(F)C(O)C2O1)C(=O)O (stereo not drawn) [9-F-8-epi-neoDH],elicited rapidly activating currents; also recorded: elicited large desensitizing currents with variable kinetics,–,–
